Holding throughout (test): growth of human tumour cells (NCI), 48 h
The subject of test [1] is SF-539 CNS.
Test [2] has as its system OVCAR-5 ovarian.
The subject of test [3] is RPMI-8226 leukemia.
Test [4] deals with OVCAR-8 ovarian.
The subject of test [5] is HCT-15 colon.
In test [6] the test system is SK-MEL-2 melanoma.
Test [7] deals with IGROV1 ovarian.
In test [8] the test system is M14 melanoma.
Test [9] concerns SN12C renal.
For test [10], the system named is UACC-62 melanoma.
Test [11] deals with 786-0 renal.
The test system of test [12] is T-47D breast.
Test [13] relates to MDA-N.
Test [14] concerns EKVX NSCLC.
Test [15] deals with U251 CNS.
In test [16] the test system is PC-3 prostate.
Test [17] deals with HCC-2998 colon.
Test [18] concerns SK-MEL-28 melanoma.
For test [19], the system named is KM12 colon.
The test system of test [20] is RXF 393 renal.

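Five concentrations, 48 hours, 96-well plates. The concentration for full growth arrest is given as TGI.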 Where only a bound is given, the exact number is not on record here.

On to `CCOC(=O)C1C(c2ccc(OC)cc2)c2c([nH]n(-c3ccccc3)c2=O)CC1(O)OCC` (stereo unspecified), for which the TGI in test [1], in test [2], in test [3], in [4], in test [5] and in test [6] was greater than 100 µM in each case. The TGI in [7], in test [8], in test [9], in [10], in [11] and in test [12] was greater than 100 µM each time. Also, the TGI in [13], in test [14], in test [15], in test [16], in test [17] and in test [18] was greater than 100 µM in each case. Moreover, the TGI in test [19] was greater than 100 µM.

Take `COc1ccc(N(CN2C(=O)CCC2C(=O)O)C(C)=O)cc1` (stereo unspecified): the TGI in [1], in test [2], in [3], in test [4], in test [5] and in test [6] was greater than 100 µM each time. Also, the TGI in test [8], in [9], in test [10], in [11], in [12] and in [13] was greater than 100 µM in each case. Also, the TGI in test [14], in test [15], in test [16], in test [17], in test [18] and in [19] was greater than 100 µM each time.

`CCOc1ccc(Nc2nc3c(s2)C(=O)c2ccccc2C3=O)cc1`: the TGI in test [1] was 35.7 µM; in test [2] it was 40 µM; in test [3], greater than 100 µM; in test [5], greater than 100 µM; in [6], 30.6 µM; in test [7], 26.7 µM. Also, the TGI was 27.6 µM in [20]; 27 µM in [8]; 13.5 µM in [9]; 5.13 µM in test [10]; 31.2 µM in test [11]; 49.9 µM in test [12]. Besides, the TGI was 3.69 µM in test [13]; 50.4 µM in [14]; 20.7 µM in test [15]; 20 µM in test [16]; 33.5 µM in [17]; 36.1 µM in test [18]. In [19], this compound had a TGI of 27.9 µM.

`CCOC(O)(NC(=O)C(C(F)(F)F)C(F)(F)F)C(F)(F)F` (stereo unspecified): the TGI in test [1], in [2], in [3], in test [4], in test [5] and in [6] was greater than 100 µM each time. The TGI in [7], in [20], in test [8], in test [9], in [11] and in test [12] was greater than 100 µM each time. The TGI in [13], in [14], in test [15], in test [16], in [17] and in test [18] was greater than 100 µM throughout.

`CC(C)C[C@H](NC(=O)[C@H](Cc1ccccc1)NC(=O)CCc1ccccc1)B(O)O`: the TGI was less than 0.01 µM in test [1]; less than 0.01 µM in [2]; greater than 100 µM in test [3]; less than 0.01 µM in [4]; less than 0.01 µM in [5]; less than 0.01 µM in test [6]. Further, the TGI in test [7], in [20], in test [8], in test [9], in test [11] and in test [12] was less than 0.01 µM throughout. The TGI in test [13] is less than 0.01 µM; in [14], less than 0.0216 µM; in [15], less than 0.0112 µM; in [16], less than 0.01 µM; in test [17] it was less than 0.01 µM; in test [18] it was less than 0.01 µM. This compound also yielded a TGI in test [19] of 0.0101 µM.

On to `COC(=O)[C@H](Cc1ccccc1)NC(=O)N1CCCN(C(=O)N[C@@H](Cc2ccccc2)C(=O)OC)CCCN(C(=O)N[C@@H](Cc2ccccc2)C(=O)OC)CCC1`, for which the TGI in test [2] is 33 µM; in [3] it was greater than 100 µM; in test [4], 47.2 µM; in test [5] it was 63.4 µM; in test [6] it was 29.5 µM; in test [7], 31.3 µM. For the same compound, the TGI turned out to be 32.6 µM in [20]; 32.4 µM in [8]; 39.1 µM in [9]; 30.2 µM in test [10]; 32.1 µM in [11]; 34.8 µM in test [12]. In addition, the TGI in test [13] was determined as 45.8 µM; in test [14] it was 53.5 µM; in test [15], 32.8 µM; in test [16], 31.1 µM; in test [17], 38.6 µM; in test [18] it was 35.4 µM. In test [19], this compound returned a TGI greater than 100 µM.

On to `O=S(=O)(O)CCCC1S(=O)(=O)OCCOS1(=O)=O`, for which the TGI in [1], in test [2], in [3], in test [4], in test [5] and in [7] was greater than 100 µM each time. Also, the TGI in test [20], in test [8], in [10], in test [11], in test [12] and in test [13] was greater than 100 µM throughout. The TGI in [14], in test [15], in test [16], in test [17], in test [18] and in [19] was greater than 100 µM each time.

As to `O=[N+]([O-])c1ccc(-c2nc3ccc([N+](=O)[O-])cc3[nH]2)cc1`, the TGI in [1] is greater than 100 µM; in test [3] it was greater than 100 µM; in [4] it was greater than 100 µM; in test [5] it was greater than 100 µM; in test [6], 59.6 µM; in [7], greater than 100 µM. Also, the TGI was greater than 100 µM in test [20]; greater than 100 µM in test [8]; greater than 100 µM in test [9]; greater than 100 µM in test [10]; greater than 100 µM in [11]; 61.7 µM in [12]. In addition, the TGI was greater than 100 µM in test [13]; greater than 100 µM in test [14]; 70.1 µM in [15]; 70.7 µM in [16]; greater than 100 µM in test [17]; greater than 100 µM in [18]. In test [19], this compound displayed a TGI greater than 100 µM.

As for `O=C1CCCC2C(O)CCC[C@H]12` (stereo partly specified), the TGI in [1], in test [2], in test [4], in test [5], in [6] and in [7] was greater than 100 µM in each case. In addition, the TGI in test [20], in test [8], in test [9], in test [10], in [11] and in test [12] was greater than 100 µM each time. Besides, the TGI in [13], in test [14], in [15], in test [16], in [17] and in test [18] was greater than 100 µM throughout. Further, the TGI in test [19] is greater than 100 µM.

For the compound `Cc1n[nH]c(=O)n1C1CCCC1`, the TGI in test [1], in test [2], in test [3], in [4], in test [5] and in test [7] was greater than 100 µM throughout. Further, the TGI in test [20], in [8], in [9], in test [11], in test [12] and in test [13] was greater than 100 µM in each case. Moreover, the TGI in test [14], in test [15], in test [16], in test [17], in [18] and in test [19] was greater than 100 µM each time.

Regarding `COc1ccc(/C=C2\C(=O)N(C)C(=O)c3cc(OC)c(OC)cc32)cc1OC`, the TGI in test [1] is 76.2 µM; in test [2], greater than 100 µM; in [3], 66.9 µM; in test [5] it was greater than 100 µM; in test [6], greater than 100 µM; in [7], greater than 100 µM. Besides, the TGI is 51.6 µM in test [20]; greater than 100 µM in test [8]; greater than 100 µM in test [9]; 94 µM in [10]; greater than 100 µM in test [11]; greater than 100 µM in [12]. For the same compound, the TGI was 75.2 µM in test [13]; 27.9 µM in test [14]; greater than 100 µM in [15]; greater than 100 µM in test [16]; greater than 100 µM in [17].

Take `n1onc2c1NC1Nc3nonc3NC1N2` (stereo unspecified): the TGI in test [1], in [2], in test [3], in test [4], in test [5] and in test [7] was greater than 100 µM each time. Also, the TGI in [8], in test [9], in [11], in [12], in [13] and in test [14] was greater than 100 µM throughout. Besides, the TGI in test [15], in [16], in [17], in [18] and in test [19] was greater than 100 µM in each case.

For `CC(C)(C)n1c(=O)[nH]n(C2NN=Cc3cccc4cccc2c34)c1=O` (stereo unspecified), the TGI in test [1] is 45.1 µM; in test [2], greater than 100 µM; in [3] it was 74.6 µM; in [4], greater than 100 µM; in test [5] it was greater than 100 µM; in test [6] it was greater than 100 µM. The TGI in [20] was 72.2 µM; in test [8] it was greater than 100 µM; in test [9], greater than 100 µM; in test [10], greater than 100 µM; in test [11] it was greater than 100 µM; in test [12], greater than 100 µM. Besides, the TGI in test [13] is 59.4 µM; in [14], 68.8 µM; in test [15], greater than 100 µM; in test [16], greater than 100 µM; in [17], greater than 100 µM; in test [18], greater than 100 µM. The compound further came in with a TGI in [19] greater than 100 µM.

Take `C=CCOC(=O)Cn1cc(C)c(=O)[nH]c1=O`: the TGI in test [1], in test [3], in test [4], in test [5], in [6] and in test [7] was greater than 100 µM in each case. The TGI in test [8], in [9], in test [10], in test [11], in [12] and in test [13] was greater than 100 µM in each case. Further, the TGI in [14], in test [15], in test [16], in [17], in [18] and in [19] was greater than 100 µM each time.

In the case of `COc1cc(OC)cc(OCc2ccc3nc(-c4ccccc4)c(Cl)nc3c2)c1`, the TGI in test [1] is 49.9 µM; in [2], greater than 100 µM; in test [3], greater than 100 µM; in test [4], 95.9 µM; in test [5], greater than 100 µM; in test [6], greater than 100 µM. Further, the TGI was 66.4 µM in test [7]; greater than 100 µM in [8]; greater than 100 µM in [9]; greater than 100 µM in [10]; 28.3 µM in test [11]; greater than 100 µM in [12]. Besides, the TGI is greater than 100 µM in [13]; greater than 100 µM in test [14]; 59.9 µM in [15]; greater than 100 µM in test [16]; greater than 100 µM in test [17]; greater than 100 µM in [18]. The TGI in [19] was greater than 100 µM.

For the origin of these results see PubChem BioAssay (NCI).
